Format in all cases: in vivo
For experiment [1], the system named is Diamond back moth (Plutella xylostella). Put plainly: Example B.6: Action on diamond back moth (Plutella xylostella), cabbage leaf dip, 3rd instar larvae. Particulars: foliar, 72 hours after treatment, read-out: mortality in comparison with untreated controls. The procedure:
The active compound is dissolved at the desired concentration in a mixture of 1:1 (v/v) distilled water: acetone. Surfactant (Kinetic® HV) is added at a rate of 0.01% (v/v). The test solution is prepared at the day of use.
Leaves of cabbage were dipped in test solution and air-dried. Treated leaves were placed in petri dishes lined with moist filter paper and inoculated with ten 3rd instar larvae. Mortality was recorded 72 hours after treatment. Feeding damages were also recorded using a scale of 0-100%.

In experiment [2] the test system is Southern armyworm (Spodoptera eridania), 2nd instar larvae. Put plainly: Example B.7: Action on southern armyworm (Spodoptera eridania), 2nd instar larvae on sprayed lima bean plants. The settings on record: 96 h, 4 days after treatment, read-out: mortality in comparison with untreated controls. The procedure:
The active compounds were formulated by a Tecan liquid handler in 100% cyclohexanone as a 10,000-ppm solution supplied in tubes. The 10,000-ppm solution was serially diluted in 100% cyclohexanone to make interim solutions. These served as stock solutions for which final dilutions were made by the Tecan in 50% acetone:50% water (v/v) into 10 or 20 ml glass vials. A nonionic surfactant (Kinetic®) was included in the solution at a volume of 0.01% (v/v). The vials were then inserted into an automated electrostatic sprayer equipped with an atomizing nozzle for application to plants/insects.
Lima bean plants (variety Sieva) were grown 2 plants to a pot and selected for treatment at the 1st true leaf stage. Test solutions were sprayed onto the foliage by an automated electrostatic plant sprayer equipped with an atomizing spray nozzle. The plants were dried in the sprayer fume hood and then removed from the sprayer. Each pot was placed into perforated plastic bags with a zip closure. About 10 to 11 armyworm larvae were placed into the bag and the bags zipped closed. Test plants were maintained in a growth room at about 25° C. and about 20-40% relative humidity for 4 days, avoiding direct exposure to fluorescent light (24-hour photoperiod) to prevent trapping of heat inside the bags. Mortality and reduced feeding were assessed 4 days after treatment, compared to untreated control plants.

In experiment [3] the test system is Silverleaf whitefly (Bemisia argentifolii) (adults). The experiment can be described thus: Example B.4: Action on silverleaf whitefly (Bemisia argentifolii) adults on sprayed cotton plants. Particulars: 72 h, 3 days after treatment, read-out: mortality in comparison with untreated controls. The procedure:
The active compounds were formulated by a Tecan liquid handler in 100% cyclohexanone as a 10,000-ppm solution supplied in tubes. The 10,000-ppm solution was serially diluted in 100% cyclohexanone to make interim solutions. These served as stock solutions for which final dilutions were made by the Tecan in 50% acetone:50% water (v/v) into 5 or 10 ml glass vials. A nonionic surfactant (Kinetic®) was included in the solution at a volume of 0.01% (v/v). The vials were then inserted into an automated electrostatic sprayer equipped with an atomizing nozzle for application to plants/insects.
Cotton plants at the cotyledon stage (one plant per pot) were sprayed by an automated electrostatic plant sprayer equipped with an atomizing spray nozzle. The plants were dried in the sprayer fume hood and then removed from the sprayer. Each pot was placed into a plastic cup and about 10 to 12 whitefly adults (approximately 3-5 days old) were introduced. The insects were collected using an aspirator and a nontoxic Tygon® tubing connected to a barrier pipette tip. The tip, containing the collected insects, was then gently inserted into the soil containing the treated plant, allowing insects to crawl out of the tip to reach the foliage for feeding. Cups were covered with a reusable screened lid. […] Mortality was assessed 3 days after treatment, compared to untreated control plants.

Experiment [4] deals with yellow fever mosquito (Aedes aegypti). The experiment can be described thus: whole plant or invertebrate. Particulars: 48 h, larval mortality after 2 days, read-out: mortality in comparison with untreated controls. As for the experimental part:
For evaluating control of yellow fever mosquito (Aedes aegypti) the test unit consisted of 96-well-microtiter plates containing 200 μl of tap water per well and 5-15 freshly hatched A. aegypti larvae.
The active compounds or mixtures were formulated using a solution containing 75% (v/v) water and 25% (v/v) DMSO. Different concentrations of formulated compounds or mixtures were sprayed onto the insect diet at 2.5 μl, using a custom-built micro atomizer, at two replications.
For experimental mixtures in these tests identical volumes of both mixing partners at the desired concentrations respectively, were mixed together.
After application, microtiter plates were incubated at 28 #1° C., 80 #5% RH for 2 days. Larval mortality was then visually assessed.

In experiment [5] the test system is Orchid thrips (Dichromothrips corbetti). Put plainly: Example B.2: Action on orchid thrips (Dichromothrips corbetti), floral-immersion technique. Particulars: 72 hours after treatment, read-out: mortality in comparison with untreated controls. As for the experimental part: Dichromothrips corbetti adults used for bioassay were obtained from a colony maintained continuously under laboratory conditions. For testing purposes, the test compound is diluted in a 1:1 mixture of acetone:water (vol:vol), plus Kinetic® HV at a rate of 0.01% v/v.
Thrips potency of each compound was evaluated by using a floral-immersion technique. All petals of individual, intact orchid flowers were dipped into treatment solution and allowed to dryin Petri dishes. Treated petals were placed into individual re-sealable plastic along with about 20 adult thrips. All test arenas were held under continuous light and a temperature of about 28° C. for duration of the assay. After 3 days, the numbers of live thrips were counted on each petal. The percent mortality was recorded 72 hours after treatment.

For experiment [6], the system named is tobacco budworm (Heliothis virescens). The experiment can be described thus: Example B.5: Action on tobacco budworm (Heliothis virescens), egg and larval mortality on insect diet. The settings on record: 120 h, egg and larval mortality after 5 days, read-out: mortality in comparison with untreated controls. The procedure: For evaluating control of tobacco budworm (Heliothis virescens) the test unit consisted of 96-well-microtiter plates containing an insect diet and 15-25 H. virescens eggs.
The compounds were formulated using a solution containing 75% v/v water and 25% v/v DMSO. Different concentrations of formulated compounds were sprayed onto the insect diet at 10 μl, using a custom-built micro atomizer, at two replications.
After application, microtiter plates were incubated at about 28±1C and about 80±5% relative humidity for 5 days. Egg and larval mortality were then visually assessed.

The subject of experiment [7] is boll weevil (Anthonomus grandis). Put plainly: Example B.3: Action on boll weevil (Anthonomus grandis), egg and larval mortality on insect diet. Particulars: 120 h, egg and larval mortality after 5 days, read-out: mortality in comparison with untreated controls. The procedure: For evaluating control of boll weevil (Anthonomus grandis) the test unit consisted of 96-well-microtiter plates containing an insect diet and 5-10 A. grandis eggs.
The compounds were formulated using a solution containing 75% (v/v) water and 25% (v/v) DMSO. Different concentrations of formulated compounds were sprayed onto the insect diet at […], using a custom-built micro atomizer, at two replications.
After application, microtiter plates were incubated at about 25±1C and about 75±5% relative humidity for 5 days. Egg and larval mortality were then visually assessed.

For orientation: mortality means the share of the test organisms that died.

Consider `Cc1ccc(C(C)C)c(N2C(=O)CS/C2=N\C(=O)Nc2ccc(-c3nc(NC(=O)c4ccc(OC(F)(F)F)cc4)n(C)n3)cc2Cl)c1` [Example C-6, N-[5-[3-chloro-4-[[(Z)-[3-(2-isopropyl-5-methyl-phenyl)-4-oxo-thiazolidin-2-ylidene]carbamoyl]amino]phenyl]-2-methyl-1,2,4-triazol-3-yl]-4-(trifluoromethoxy)benzamide], for which the mortality at 300 ppm in experiment [1], in experiment [2], in experiment [3] and in experiment [5] was no less than 75% throughout. In addition, the values for the mortality at 800 ppm in experiment [4], in experiment [6] and in experiment [7] were no less than 50%, no less than 75% and no less than 75%, respectively.
In the case of `Cc1ccc(C(C)C)c(N2C(=O)CS/C2=N\C(=O)Nc2ccc(-c3nn(C)c(NC(=O)c4ccc(OC(F)(F)F)cc4)c3C)cc2Cl)c1` [Example C-8, N-[5-[3-chloro-4-[[(Z)-[3-(2-isopropyl-5-methyl-phenyl)-4-oxo-thiazolidin-2-ylidene]carbamoyl]amino]phenyl]-2,4-dimethyl-pyrazol-3-yl]-4-(trifluoromethoxy)benzamide], the mortality at 300 ppm in experiment [1], in experiment [2] and in experiment [5] was no less than 75% in each case. Moreover, the mortality at 800 ppm in experiment [4] is no less than 50%; in experiment [6] it was no less than 75%; in experiment [7] it was no less than 75%.

For the origin of these results see patent US20260055096A1, “AZOLE PESTICIDAL COMPOUNDS” (BASF SE, priority 2022, published 2026).
